The results in this text go back to ChEMBL document CHEMBL4049396, “Enzymatic and solid-phase synthesis of new donepezil-based L- and d-glutamic acid derivatives and their pharmacological evaluation in models related to Alzheimer's disease and cerebral ischemia” (Eur J Med Chem, 2017).

For data set [1], the system named is SH-SY5Y. The data set can be described thus: Neuroprotective activity against rotenone/oligomycin A-induced mitochondrial oxidative stress in human SH-SY5Y cells assessed as cell survival at 0.3 uM pretreated for 24 hrs followed by rotenone/oligomycin A challenge measured after 24 hrs by MTT assay relative to control. Format: functional. As to conditions: read-out: Survival. In general terms: Tetrazolium assays rely on reduction of a dye to a coloured formazan, in cell work by metabolically active cells.

The nature of data set [2]: Antioxidant activity assessed as oxygen radical absorbance capacity at 10 uM. Format: functional.
A short description of a further data set: physchem. As to conditions: PAMPA, pH 7.4. In general terms: In PAMPA a lipid-coated filter parts donor from acceptor wells.
The subject of data set [3] is SH-SY5Y. Kind of data set: Neuroprotective activity against oxygen glucose deprivation/re-oxygenation-induced mitochondrial oxidative stress in human SH-SY5Y cells assessed as cell survival at 0.3 uM pretreated for 24 hrs followed by 4 hrs incubation under oxygen glucose deprivation medium and subsequent exposure to normoxic condition by MTT assay relative to control. Format: functional. The following applies: read-out: Survival.

Another data set addresses Acetylcholinesterase (Homo sapiens, UniProt P22303). The data set can be described thus: Inhibition of recombinant human AChE expressed in HEK293 cells using acetylthiocholine iodide as substrate pretreated for 5 mins followed by substrate addition measured for 5 mins by UV-Vis spectrophotometric method.
For data set [4], the system named is SH-SY5Y. The data set can be described thus: Cytotoxicity against human SH-SY5Y cells at 0.3 uM after 24 hrs by MTT assay. Format: cell-based.
For a further data set, the target named is Cholinesterase (Homo sapiens, UniProt P06276). Kind of data set: Inhibition of human serum BuChE using butyrylthiocholine iodide as substrate pretreated for 5 mins followed by substrate addition measured for 5 mins by UV-Vis spectrophotometric method.
Data set [5] in a line: Antioxidant activity assessed as oxygen radical absorbance capacity at 10 uM relative to trolox. It is filed as functional.
For a further data set, the species on record is Homo sapiens. Kind of data set: Ratio of IC50 for recombinant human AChE expressed in HEK293 cells to IC50 for human serum BuChE. Format: cell-based.
The species named for data set [6] is Bos taurus. The data set can be described thus: Inhibition of L-type voltage dependent calcium channel in bovine Chromaffin cells assessed as reduction in K+-induced calcium current amplitude at 10 uM preincubated for 5 mins followed by potassium challenge measured by Fluo-4AM dye based fluorescence assay relative to control. Format: cell-based.
Data set [7] addresses T1, Voltage-gated L-type calcium channel (Homo sapiens, UniProt Q13936+Q13698+Q01668+O60840). The data set can be described thus: Inhibition of L-type voltage dependent calcium channel in human SH-SY5Y cells assessed as reduction in K+-induced cytosolic free calcium transient current preincubated for 15 mins followed by potassium challenge measured for 14 secs by Fluo-4AM dye based fluorescence assay. It is filed as cell-based.

In data set [8] the test system is Hippocampus. The data set can be described thus: Neuroprotective activity in oxygen glucose deprivation/re-oxygenation-induced Sprague-Dawley rat hippocampal slice cerebral ischemia model assessed as cell viability at 3 uM incubated for 2 hrs under normoxic condition by MTT assay (reference value: 40%). Format: functional.
The species named for data set [9] is Bos taurus. The data set can be described thus: Inhibition of L-type voltage dependent calcium channel in bovine Chromaffin cells assessed as reduction in K+-induced calcium transient current area at 10 uM preincubated for 5 mins followed by potassium challenge measured by Fluo-4AM dye based fluorescence assay relative to control. Format: cell-based.
Data set [10] is described as follows: Inhibition of L-type voltage dependent calcium channel in bovine Chromaffin cells assessed as reduction in K+-induced cytosolic free calcium transient current preincubated for 5 mins followed by potassium challenge measured by Fluo-4AM dye based fluorescence assay. The following applies: Bos taurus. It is filed as cell-based.
Data set [11] deals with T1, Voltage-gated L-type calcium channel. The data set can be described thus: Inhibition of L-type voltage dependent calcium channel in human SH-SY5Y cells assessed as reduction in K+-induced cytosolic free calcium transient current at 100 uM preincubated for 15 mins followed by potassium challenge measured for 14 secs by Fluo-4AM dye based fluorescence assay relative to control. As to conditions: 14 s. It is filed as cell-based.

The test system of data set [12] is Hippocampus. The data set can be described thus: Neuroprotective activity in oxygen glucose deprivation/re-oxygenation-induced Sprague-Dawley rat hippocampal slice cerebral ischemia model assessed as cell viability at 1 uM incubated for 2 hrs under normoxic condition by MTT assay (reference value: 40%). Format: functional.
Data set [13] relates to Hippocampus. Kind of data set: Neuroprotective activity in oxygen glucose deprivation/re-oxygenation-induced Sprague-Dawley rat hippocampal slice cerebral ischemia model assessed as increase in cell viability incubated for 2 hrs under normoxic condition by MTT assay. It is filed as functional, tissue-based.

By Papp is commonly meant the rate of passage across a membrane or cell layer, normalised by area and donor concentration. Usually IC50 stands for the midpoint of a concentration-inhibition curve. The inhibition is the drop in the measured response relative to a control, in per cent.

The source made the active and inactive calls. The rule behind the calls is not given here.

Chain of Acetylcholinesterase (P22303 whole entry): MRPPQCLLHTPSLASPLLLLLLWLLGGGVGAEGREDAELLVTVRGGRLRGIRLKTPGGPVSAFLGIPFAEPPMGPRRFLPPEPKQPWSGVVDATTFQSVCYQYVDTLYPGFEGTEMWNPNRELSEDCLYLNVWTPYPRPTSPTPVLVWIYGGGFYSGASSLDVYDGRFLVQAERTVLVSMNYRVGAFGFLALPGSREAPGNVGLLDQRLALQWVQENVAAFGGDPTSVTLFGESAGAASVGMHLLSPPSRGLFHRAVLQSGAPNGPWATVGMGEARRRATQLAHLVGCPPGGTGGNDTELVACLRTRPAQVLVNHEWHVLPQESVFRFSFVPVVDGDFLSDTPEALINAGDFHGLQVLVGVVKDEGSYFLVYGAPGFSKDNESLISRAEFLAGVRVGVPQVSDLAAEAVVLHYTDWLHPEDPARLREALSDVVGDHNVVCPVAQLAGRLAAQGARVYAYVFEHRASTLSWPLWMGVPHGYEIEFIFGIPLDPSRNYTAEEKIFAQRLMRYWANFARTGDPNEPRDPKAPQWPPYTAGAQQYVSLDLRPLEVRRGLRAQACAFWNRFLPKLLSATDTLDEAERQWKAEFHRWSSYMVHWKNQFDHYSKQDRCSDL
Chain of Cholinesterase (P06276 whole entry): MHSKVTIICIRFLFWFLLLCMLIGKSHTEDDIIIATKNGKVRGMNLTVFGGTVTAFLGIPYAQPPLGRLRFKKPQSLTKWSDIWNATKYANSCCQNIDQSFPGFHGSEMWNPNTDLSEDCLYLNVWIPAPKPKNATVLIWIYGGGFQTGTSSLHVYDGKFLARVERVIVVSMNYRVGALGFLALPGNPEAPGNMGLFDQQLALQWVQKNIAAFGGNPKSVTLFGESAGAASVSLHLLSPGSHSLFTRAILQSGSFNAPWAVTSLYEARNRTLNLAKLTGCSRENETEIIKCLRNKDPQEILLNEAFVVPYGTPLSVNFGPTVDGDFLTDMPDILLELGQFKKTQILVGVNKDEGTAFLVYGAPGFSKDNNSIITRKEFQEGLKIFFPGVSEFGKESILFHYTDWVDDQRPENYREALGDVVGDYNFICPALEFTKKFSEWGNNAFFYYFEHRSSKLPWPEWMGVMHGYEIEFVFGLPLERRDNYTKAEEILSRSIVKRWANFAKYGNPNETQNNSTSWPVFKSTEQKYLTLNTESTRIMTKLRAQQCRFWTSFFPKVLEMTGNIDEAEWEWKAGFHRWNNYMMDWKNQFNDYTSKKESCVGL
Description for physchem: Permeability of the compound at pH 7.4 at 1 mg/ml after 4 hrs by PAMPA-BBB assay

Regarding `CCOC(=O)[C@H](CCC(=O)NCCC1CCN(Cc2ccccc2)CC1)NC(=O)c1ccccc1`, the viability at 0.3 µM in the data set on SH-SY5Y [1] turned out to be 38.6%; with SH-SY5Y [3], 50.9%. For the same compound, in data set [2], the result was inactive. The compound further came in with a Papp at 4 h, 1 mg/ml in “physchem” of 5.2 ×10⁻⁶ cm/s. Besides, the IC50 on Acetylcholinesterase was found to be 0.85 µM; on Cholinesterase, 1.3 µM. Besides, the Activity result in the data set on SH-SY5Y [4] is “Non-Toxic”.

For the compound `CCOC(=O)[C@@H](CCC(=O)NCCC1CCN(Cc2ccccc2)CC1)NC(=O)c1ccccc1`, the viability at 0.3 µM came out at 15.1% in the data set on SH-SY5Y [1] and 39.8% in the data set on SH-SY5Y [3]. In addition, in data set [2], the outcome was inactive. In the data set “physchem”, this compound came in with a Papp at 4 h, 1 mg/ml of 6.6 ×10⁻⁶ cm/s. The IC50 was 0.5 µM on Acetylcholinesterase and 0.39 µM at Cholinesterase. Besides, the Activity entry with SH-SY5Y [4] was “Non-Toxic”.

`O=C(CC[C@H](NC(=O)c1c[nH]c2ccccc12)C(=O)O)NCCC1CCN(Cc2ccccc2)CC1`: the viability at 0.3 µM is 34.6% with SH-SY5Y [1] and 48.4% in the data set on SH-SY5Y [3]. The Activity in data set [5] was 70 to 73%; in the data set with SH-SY5Y [4], “Non-Toxic”. In “physchem”, the Papp at 4 h, 1 mg/ml was determined as 1.8 ×10⁻⁶ cm/s. The results for the IC50 at Acetylcholinesterase and on Cholinesterase were 6.4 µM and 71 µM, respectively.

For `CCOC(=O)CC[C@@H](NC(=O)OCc1ccccc1)C(=O)OCC`, the viability at 0.3 µM with SH-SY5Y [1] was 34.7%; in the data set with SH-SY5Y [3], 47.1%. In [2], the result was inactive. Moreover, the IC50 at Acetylcholinesterase and on Cholinesterase was greater than 10 µM each time. The Activity entry with SH-SY5Y [4] is “Non-Toxic”.

Take `CCOC(=O)CC[C@@H](NC(=O)OCc1ccccc1)C(=O)NCCC1CCN(Cc2ccccc2)CC1`: the viability at 0.3 µM in the data set with SH-SY5Y [1] was 31.6%; with SH-SY5Y [3], 47%. The outcome in data set [2] was inactive. Further, the Ratio IC50 in the data set filed under Homo sapiens came to 10. Further, the Papp at 4 h, 1 mg/ml in “physchem” was 16.7 ×10⁻⁶ cm/s. Moreover, the IC50 at Acetylcholinesterase came to 3 µM; at Cholinesterase it was 0.17 µM. Moreover, in the data set with SH-SY5Y [4], the Activity result was “Non-Toxic”.

In the case of `CCCCCCOC(=O)[C@H](CCC(=O)NCCC1CCN(Cc2ccccc2)CC1)NC(=O)c1ccccc1`, the viability at 0.3 µM amounted to 44.1% with SH-SY5Y [1] and 53.4% with SH-SY5Y [3]. For the same compound, the result in data set [2] was inactive. The inhibition was determined as 40% in the data set listed under Bos taurus [6] and 80% in the data set listed under Bos taurus [9]. Further, the figures for the IC50 in data set [7] and in [10] were 14.1 µM and 5.31 µM, respectively. Further, the Activity result with SH-SY5Y [4] was “Non-Toxic”; in the data set on Hippocampus [8], 55%.

For the compound `CCCCCCOC(=O)[C@@H](CCC(=O)NCCC1CCN(Cc2ccccc2)CC1)NC(=O)c1ccccc1`, the viability at 0.3 µM in the data set on SH-SY5Y [1] turned out to be 13%; in the data set on SH-SY5Y [3], 32.2%. The outcome in data set [2] was inactive. The compound also returned a Papp at 4 h, 1 mg/ml in “physchem” of 13.9 ×10⁻⁶ cm/s. In addition, the IC50 on Acetylcholinesterase is 0.89 µM; at Cholinesterase, 0.36 µM. In the data set on SH-SY5Y [4], the Activity entry is “Non-Toxic”.

Turning to `CCOC(=O)CC[C@H](NC(=O)OCc1ccccc1)C(=O)NCCC1CCN(Cc2ccccc2)CC1`, the viability at 0.3 µM with SH-SY5Y [1] came out at 35.2%; in the data set with SH-SY5Y [3] it was 42.7%. The result in data set [2] was inactive. Further, in data set [11], the “%max” value is listed as 63%. Further, in the data set filed under Homo sapiens, the Ratio IC50 is 10. The Papp at 4 h, 1 mg/ml in “physchem” turned out to be 21 ×10⁻⁶ cm/s. The IC50 in [7] amounted to 90.1 µM; at Acetylcholinesterase it was 4.99 µM; on Cholinesterase it was 0.4 µM. Besides, the Activity in the data set with Hippocampus [12] was 48%; with SH-SY5Y [4] it was “Non-Toxic”; in the data set with Hippocampus [8], 69%; in the data set with Hippocampus [13] it was “Dose-dependent effect”.

`O=C(CC[C@@H](NC(=O)c1ccccc1)C(=O)O)NCCC1CCN(Cc2ccccc2)CC1`: the viability at 0.3 µM with SH-SY5Y [1] was determined as 22.6%; in the data set on SH-SY5Y [3], 38.5%. The outcome in [2] was inactive. Moreover, the Papp at 4 h, 1 mg/ml in the data set “physchem” was found to be 4.6 ×10⁻⁶ cm/s. Besides, the IC50 at Acetylcholinesterase was 20 µM; at Cholinesterase, 82 µM. Further, the Activity result in the data set with SH-SY5Y [4] is reported as “Non-Toxic”.

On to `CCOC(=O)[C@H](CCC(=O)NCCC1CCN(Cc2ccccc2)CC1)NC(=O)c1ccc2cc(OC)ccc2c1`, for which the viability at 0.3 µM in the data set on SH-SY5Y [1] amounted to 25.3%; with SH-SY5Y [3], 37.7%. Besides, the outcome in [2] was inactive. In “physchem”, the Papp at 4 h, 1 mg/ml amounted to 8.3 ×10⁻⁶ cm/s. Besides, the IC50 on Acetylcholinesterase was found to be 0.89 µM; on Cholinesterase it was 3.8 µM. Further, in the data set with SH-SY5Y [4], the Activity entry is “Non-Toxic”.

`COc1ccc2[nH]cc(CCNC(C)=O)c2c1` [MELATONIN]: the viability at 0.3 µM turned out to be 33.4% with SH-SY5Y [1] and 31.4% in the data set on SH-SY5Y [3].

With `COc1ccc2cc(C(=O)N[C@@H](CCC(=O)NCCC3CCN(Cc4ccccc4)CC3)C(=O)O)ccc2c1`, the viability at 0.3 µM with SH-SY5Y [1] was 35%; in the data set with SH-SY5Y [3], 45%. Further, the outcome in data set [2] was inactive. In addition, the IC50 came to 15.2 µM on Acetylcholinesterase and 97 µM at Cholinesterase. Further, in the data set on SH-SY5Y [4], the Activity entry is “Non-Toxic”.

For the compound `CCCCCCOC(=O)[C@H](CCC(=O)NCCC1CCN(Cc2ccccc2)CC1)NC(=O)c1c[nH]c2ccccc12`, the viability at 0.3 µM in the data set on SH-SY5Y [1] is 22.1%; in the data set with SH-SY5Y [3], 31.8%. For the same compound, the Activity in [5] is 70 to 73%; in the data set on SH-SY5Y [4], “Non-Toxic”. For the same compound, the Papp at 4 h, 1 mg/ml in “physchem” was 9.6 ×10⁻⁶ cm/s. Further, the results for the IC50 on Acetylcholinesterase and at Cholinesterase were 3.04 µM and 1.85 µM, respectively.

Consider `CCOC(=O)[C@H](CCC(=O)NCCC1CCN(Cc2ccccc2)CC1)NC(=O)c1c[nH]c2ccccc12`, for which the viability at 0.3 µM in the data set on SH-SY5Y [1] is 39.5%; in the data set on SH-SY5Y [3] it was 42.4%. Further, the Activity was 70 to 73% in [5] and “Non-Toxic” in the data set with SH-SY5Y [4]. This compound also had a Papp at 4 h, 1 mg/ml in the data set “physchem” of 4.5 ×10⁻⁶ cm/s. Further, the figures for the IC50 at Acetylcholinesterase and at Cholinesterase were 1.9 µM and 0.3 µM, respectively.

For `CCOC(=O)CC[C@H](NC(=O)OCc1ccccc1)C(=O)OCC`, the viability at 0.3 µM was 37.3% with SH-SY5Y [1] and 51.6% with SH-SY5Y [3]. The outcome in [2] was inactive. Also, the IC50 on Acetylcholinesterase and on Cholinesterase was greater than 10 µM each time. In addition, the Activity entry in the data set on SH-SY5Y [4] is “Non-Toxic”.

As for `O=C(CC[C@H](NC(=O)c1ccccc1)C(=O)O)NCCC1CCN(Cc2ccccc2)CC1`, the viability at 0.3 µM in the data set with SH-SY5Y [1] amounted to 46.5%; in the data set with SH-SY5Y [3], 50.6%. In addition, in [2], the result was inactive. In “physchem”, this compound gave a Papp at 4 h, 1 mg/ml of 3.5 ×10⁻⁶ cm/s. The IC50 at Acetylcholinesterase was 0.76 µM; at Cholinesterase, greater than 10 µM. In addition, in the data set with SH-SY5Y [4], the Activity result is “Non-Toxic”.
